Experimental findings from paper PMC3150642 (Journal of medicinal chemistry, 2011) are described below.

Each structure is given as a SMILES string.

One experiment can be described thus: DPPH Antioxidant Test. Conditions: 5 μM test reagent, 500 μM DPPH. Background: Loss of DPPH colour is used to gauge radical scavenging.
Experiment [1] concerns the target T1, 12-LOX in primary human islets (Homo sapiens, UniProt P18054).
T1 sequence (P18054 1-663): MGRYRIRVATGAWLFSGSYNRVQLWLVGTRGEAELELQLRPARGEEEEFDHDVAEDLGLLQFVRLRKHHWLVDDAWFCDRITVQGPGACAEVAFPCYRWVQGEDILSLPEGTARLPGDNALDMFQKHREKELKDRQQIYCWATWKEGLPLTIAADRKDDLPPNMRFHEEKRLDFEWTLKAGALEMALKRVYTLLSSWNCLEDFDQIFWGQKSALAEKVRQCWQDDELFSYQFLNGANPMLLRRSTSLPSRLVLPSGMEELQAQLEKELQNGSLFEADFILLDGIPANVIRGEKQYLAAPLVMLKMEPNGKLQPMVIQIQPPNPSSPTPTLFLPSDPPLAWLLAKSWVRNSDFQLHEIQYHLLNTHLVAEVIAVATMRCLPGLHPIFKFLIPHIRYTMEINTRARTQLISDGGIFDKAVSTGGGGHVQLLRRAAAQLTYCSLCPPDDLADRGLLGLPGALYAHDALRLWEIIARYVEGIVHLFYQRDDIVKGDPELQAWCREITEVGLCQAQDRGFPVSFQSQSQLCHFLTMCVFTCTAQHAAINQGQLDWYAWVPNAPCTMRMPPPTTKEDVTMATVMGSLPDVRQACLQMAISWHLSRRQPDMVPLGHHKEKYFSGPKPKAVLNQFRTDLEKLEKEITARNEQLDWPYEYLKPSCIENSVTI
Briefly: Inhibition of 12-HETE Production in Human Donor Islets. It is filed as cell-based. Conditions: 10 μM, islets of two type 2 diabetic donors, AA + A23187.

Another experiment has as its target T2, 12-LOX in platelets (Homo sapiens, UniProt P18054).
T2 sequence (P18054 1-663): T1 sequence (P18054 1-663)
Conditions: 100 μM inhibitor, three separate experiments.

Experiment [2] has as its target T3, Human platelet 12-lipoxygenase (12-LOX) (Homo sapiens, UniProt P18054).
T3 sequence (P18054 1-663): T1 sequence (P18054 1-663)
Description: Lipoxygenase UV-Vis-based manual assay, 12-LOX. It is filed as biochemical. Conditions: Triton X-100 from 0.005% to 0.02%.

`CCC(=O)NC(c1cccs1)c1cc([N+](=O)[O-])c2cccnc2c1O` (centres unmarked) [Compound 1, N-((8-hydroxy-5-nitroquinolin-7-yl)(thiophen-2-yl)methyl)propionamide]: the “reduction of DPPH” value in “DPPH Antioxidant Test” was “no reduction of DPPH was observed”. The “inhibition of stimulated 12-HETE production” value in experiment [1] is 74%. For the same compound, the “inhibition of PAR1-AP-mediated 12-HETE production” value against 12-LOX in platelets is on record as “significant inhibition”.

In the case of `CC(=O)NC(c1cccs1)c1cc(Cl)c2cccnc2c1O` (centres unmarked) [Compound 3, N-((5-chloro-8-hydroxyquinolin-7-yl)(thiophen-2-yl)methyl)acetamide], in experiment [2], the “change in IC50 with increasing Triton X-100 (aggregation test)” value is given as “negligible changes in the IC50”.

For the compound `CC(Cc1ccc(O)c(O)c1)C(C)Cc1ccc(O)c(O)c1` (centres unmarked) [NDGA, Nordihydroguaiaretic acid, reference compound], the “reduction of DPPH” value in “DPPH Antioxidant Test” is listed as “Stoichiometric reduction of DPPH”.
